Measurements from PubChem BioAssay AID256 (DTP/NCI, 2004).
“And” between values parts separate entries of the source, which are not always exact repeats. Identical values can stand only once. Inconclusive results and toxic doses are left out.

System: CD2F1 mice, L1210 leukemia ip, survival T/C
Test: NCI In Vivo Anticancer Drug Screen. Data for tumor model L1210 Leukemia (intraperitoneal) in CD2F1 (CDF1) mice
Settings: higher = longer survival
Summary of the method: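 Antitumor effect is scored in animals hosting a serially transplanted tumor. Values compare compound-dosed animals against vehicle-only controls as a simple quotient.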

[1] = endpoint: mean survival time, dose: 50.0 mg/kg/injection, schedule: Q01DX009 (ip), vehicle: saline with Tween-80
[2] = endpoint: mean survival time, dose: 100.0 mg/kg/injection, schedule: Q01DX009 (ip), vehicle: saline with Tween-80
[3] = endpoint: mean survival time, dose: 200.0 mg/kg/injection, schedule: Q01DX009 (ip), vehicle: saline with Tween-80

In the case of `COc1cccc2c1C(CO)N1C(C#N)C3CC(C(=O)O)C(C1C2)N3C` (stereo not given), the T/C (endpoint: median survival time, dose: 3.12 mg/kg/injection, schedule: Q01DX005 (ip), vehicle: saline) is reported as 112 % of control, the T/C (endpoint: median survival time, dose: 6.25 mg/kg/injection, schedule: Q01DX005 (ip), vehicle: saline) is reported as 110 % of control and the T/C (endpoint: median survival time, dose: 9.0 mg/kg/injection, schedule: Q01DX005 (ip), vehicle: suspension in saline) is reported as 120 % of control and 111 % of control. The T/C (endpoint: median survival time, dose: 12.5 mg/kg/injection, schedule: Q01DX005 (ip), vehicle: saline) was 112 % of control, the T/C (endpoint: median survival time, dose: 15.0 mg/kg/injection, schedule: Q01DX005 (ip), vehicle: suspension in saline) was 124 % of control and the T/C (endpoint: median survival time, dose: 41.67 mg/kg/injection, schedule: Q01DX005 (ip), vehicle: suspension in saline) was 87 % of control. The T/C (endpoint: median survival time, dose: 50.0 mg/kg/injection, schedule: Q01DX005 (ip), vehicle: saline) was 89 % of control.
With `COc1cc(OC)c(NC(=O)Oc2c(Cl)cccc2Cl)cc1Cl` the T/C [1] was 94 % of control and the T/C [2] was 97 % of control.
With `CCOC(=O)C(C(=O)OC)C(=O)OCC` the T/C (endpoint: mean survival time, dose: 100.0 mg/kg/injection, schedule: Q01DX001 (ip), vehicle: saline) was 95 % of control, the T/C (endpoint: mean survival time, dose: 200.0 mg/kg/injection, schedule: Q01DX001 (ip), vehicle: saline) was 103 % of control and the T/C (endpoint: mean survival time, dose: 400.0 mg/kg/injection, schedule: Q01DX001 (ip), vehicle: saline) was 103 % of control.
`S=C1NCc2ccccc2N1` was tested, and the T/C (endpoint: mean survival time, dose: 25.0 mg/kg/injection, schedule: Q01DX001 (ip), vehicle: Klucel (hydroxypropylcellulose) (HPC)) was 101 % of control, the T/C (endpoint: mean survival time, dose: 50.0 mg/kg/injection, schedule: Q01DX001 (ip), vehicle: Klucel (hydroxypropylcellulose) (HPC)) was 101 % of control and the T/C (endpoint: mean survival time, dose: 100.0 mg/kg/injection, schedule: Q01DX001 (ip), vehicle: Klucel (hydroxypropylcellulose) (HPC)) was 112 % of control.
In the case of `CN1CCN(CN2C(=O)C3C4C=CC(C3C2=O)C2C3C(=O)N(CN5CCN(C)CC5)C(=O)C3C42)CC1` (stereo not given), the T/C (endpoint: median survival time, dose: 7.2 mg/kg/injection, schedule: Q03HX027 (ip), vehicle: water) is reported as 106 % of control, the T/C (endpoint: median survival time, dose: 8.3 mg/kg/injection, schedule: Q03HX027 (ip), vehicle: water) is reported as 104 % of control and the T/C (endpoint: median survival time, dose: 12.0 mg/kg/injection, schedule: Q03HX027 (ip), vehicle: water) is reported as 114 % of control. For the same molecule, the T/C (endpoint: median survival time, dose: 16.1 mg/kg/injection, schedule: Q01DX009 (ip), vehicle: water) was 108 % of control, the T/C (endpoint: median survival time, dose: 24.8 mg/kg/injection, schedule: Q01DX009 (ip), vehicle: water) was 102 % of control and 105 % of control and 109 % of control and the T/C (endpoint: median survival time, dose: 26.8 mg/kg/injection, schedule: Q01DX009 (ip), vehicle: water) was 105 % of control. For the same molecule, the T/C (endpoint: median survival time, dose: 33.4 mg/kg/injection, schedule: Q03HX027 (ip), vehicle: water) was 172 % of control, the T/C (endpoint: median survival time, dose: 38.4 mg/kg/injection, schedule: Q03HX027 (ip), vehicle: water) was 114 % of control and the T/C (endpoint: median survival time, dose: 41.3 mg/kg/injection, schedule: Q01DX009 (ip), vehicle: water) was 124 % of control. The T/C (endpoint: median survival time, dose: 44.6 mg/kg/injection, schedule: Q01DX009 (ip), vehicle: water) was 152 % of control, the T/C (endpoint: median survival time, dose: 55.7 mg/kg/injection, schedule: Q03HX027 (ip), vehicle: water) was 103 % of control and the T/C (endpoint: median survival time, dose: 68.8 mg/kg/injection, schedule: Q01DX009 (ip), vehicle: water) was 178 % of control and 183 % of control and 219 % of control. The T/C (endpoint: median survival time, dose: 74.4 mg/kg/injection, schedule: Q01DX009 (ip), vehicle: water) was 255 % of control and the T/C (endpoint: median survival time, dose: 114.7 mg/kg/injection, schedule: Q01DX009 (ip), vehicle: water) was 210 % of control and 243 % of control and 103 % of control.
With `CCc1c(C)c(C)cc(S(=O)(=O)O)c1C` the T/C [1] was 104 % of control, the T/C [2] was 93 % of control and the T/C (endpoint: mean survival time, dose: 100.0 mg/kg/injection, schedule: Q04DX003 (ip), vehicle: saline with Tween-80) was 101 % of control. The T/C [3] was 89 % of control and the T/C (endpoint: mean survival time, dose: 200.0 mg/kg/injection, schedule: Q04DX003 (ip), vehicle: saline with Tween-80) was 87 % of control.
For `COC(c1ccccc1)C(Br)c1ccccc1` (stereo not given), the T/C [2] was 97 % of control, the T/C (endpoint: mean survival time, dose: 100.0 mg/kg/injection, schedule: Q04DX003 (ip), vehicle: saline sonified) was 103 % of control and the T/C [3] was 97 % of control. For the same molecule, the T/C (endpoint: mean survival time, dose: 200.0 mg/kg/injection, schedule: Q04DX003 (ip), vehicle: saline sonified) was 100 % of control, the T/C (endpoint: mean survival time, dose: 400.0 mg/kg/injection, schedule: Q01DX009 (ip), vehicle: saline with Tween-80) was 109 % of control and the T/C (endpoint: mean survival time, dose: 400.0 mg/kg/injection, schedule: Q04DX003 (ip), vehicle: saline sonified) was 105 % of control.
With `CCCCCCC(Sc1n[nH]c(=O)[nH]c1=O)C(=O)OCC` (stereo not given) the T/C (endpoint: mean survival time, dose: 12.5 mg/kg/injection, schedule: Q01DX005 (ip), vehicle: distilled water + Tween-80) was 97 % of control, the T/C (endpoint: mean survival time, dose: 25.0 mg/kg/injection, schedule: Q01DX005 (ip), vehicle: distilled water + Tween-80) was 102 % of control and the T/C (endpoint: mean survival time, dose: 50.0 mg/kg/injection, schedule: Q01DX005 (ip), vehicle: distilled water + Tween-80) was 102 % of control. The T/C (endpoint: mean survival time, dose: 100.0 mg/kg/injection, schedule: Q01DX005 (ip), vehicle: distilled water + Tween-80) was 96 % of control and the T/C (endpoint: mean survival time, dose: 200.0 mg/kg/injection, schedule: Q01DX005 (ip), vehicle: distilled water + Tween-80) was 97 % of control.
